Laboratory results reported in patent US10738101B2, “Method for selecting odor-controlling substance” (Kao Corporation, priority 2015, dated 2020).

Molecular target: T1, OR10G4 (Homo sapiens, UniProt Q8NGN3)
T1 construct: expressed in transfected cells; host or cells: HEK293
T1 sequence (Q8NGN3 1-311): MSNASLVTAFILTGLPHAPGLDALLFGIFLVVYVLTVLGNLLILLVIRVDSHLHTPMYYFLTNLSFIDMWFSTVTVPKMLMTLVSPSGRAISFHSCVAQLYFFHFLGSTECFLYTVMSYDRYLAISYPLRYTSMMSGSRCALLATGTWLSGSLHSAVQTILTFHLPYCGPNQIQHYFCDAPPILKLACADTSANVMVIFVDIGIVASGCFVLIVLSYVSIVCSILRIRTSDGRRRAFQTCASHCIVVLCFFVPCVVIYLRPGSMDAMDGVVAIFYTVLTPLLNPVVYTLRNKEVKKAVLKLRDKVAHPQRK
Assay: Luciferase reporter gene assay, OR10G4-expressing HEK293 cells
Format: cell-based
Conditions: FIG. 5A, 5C
Description: On the basis of sequence information registered in GenBank, genes respectively encoding 370 human olfactory receptors shown in Tables 1-1 and 1-2 and genes respectively encoding the human olfactory receptors OR5AN1, OR10G4 and OR9Q2 (respectively set forth in SEQ ID NOS: 1, 3 and 5) were cloned. Each of the genes was cloned by the PCR using human genomic DNA person (G1521: Promega) as a template. Each gene amplified by the PCR was incorporated into a pENTR vector (Invitrogen) in accordance with the instruction, and was recombined to NotI and AscI sites produced downstream from a Flag-Rho tag sequence on a pME18S vector by using NotI and AscI sites present on the pENTR vector.
In 1) of Example 1, HEK293 cells on which the 370 human olfactory receptors were respectively expressed were produced. A reaction solution having a composition shown in Table 2 was prepared and allowed to stand still in a clean bench for 15 minutes, and the resultant was added by 4.4 μL per well in a 384-well plate (BioCoat). Subsequently, the HEK293 cells (20×10^4 cells/cm^2) were seeded by 40 μL per well, and the resultant was cultured for 24 hours in an incubator kept at 37° C. and 5% CO2.
In 2) of Example 1 and Examples 2 and 3, HEK293 cells in which the human olfactory receptor OR5AN1, OR10G4, OR9Q2 or OR1A1 was expressed were produced. A reaction solution having a composition shown in Table 3 was prepared and allowed to stand still in a clean bench for 15 minutes, and the resultant was added by 10 μL per well in a 96-well plate (BioCoat). Subsequently, the HEK293 cells (3×10^5 cells/cm^2) were seeded by 90 μL per well, and the resultant was cultured for 24 hours in an incubator kept at 37° C. and 5% CO2. Cells obtained under conditions for not expressing the olfactory receptor (Mock) were also prepared to be used as a control, and were used similarly in an experiment.
The olfactory receptor expressed on the HEK293 cells increases the intracellular cAMP amount by activating adenylate cyclase in conjugation with intracellular Gαs. In the measurement of odor response in this study, luciferase reporter gene assay for monitoring the increase of the intracellular cAMP amount as a luminescence value derived from a firefly luciferase gene (fluc2P-CRE-hygro) was employed. Besides, a fused Renilla luciferase (hRluc-CMV) gene was simultaneously transferred downstream of the CMV promoter, so as to be used as an internal standard for correcting the gene transfer efficiency or an error in the number of cells. […] Under each of various stimulation conditions, a value fLuc/hRluc obtained by dividing a firefly luciferase-derived luminescence value by a Renilla luciferase-derived luminescence value was calculated. […] A dose-response curve was analyzed using Graph Pad Prism. […]

`C[C@@H]1CCCCCCCCCCCCC(=O)C1` [muscone, (R)-3-methyl-1-cyclopentadecanone] was tested, and the “responsiveness of OR10G4 (fold increase)” value was “do not have responsiveness”.
